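Growth conditions: 96-well plates. Treatment: test compound, 48 hours, 5 concentrations. Analysis: linear interpolation between bracketing concentrations; unreached endpoints set to highest concentration. At the GI50, growth is halved. TGI is the concentration that stops growth completely.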
Columns and labels:
Assay in all cases: NCI tumour cell line growth inhibition, 48 h
EKVX NSCLC = tested on: EKVX NSCLC
HL-60(TB) leukemia = tested on: HL-60(TB) leukemia
A549 NSCLC = tested on: A549 NSCLC
786-0 renal = tested on: 786-0 renal
SF-295 CNS = tested on: SF-295 CNS
UACC-62 melanoma = tested on: UACC-62 melanoma
SN12C renal = tested on: SN12C renal
MOLT-4 leukemia = tested on: MOLT-4 leukemia
ACHN renal = tested on: ACHN renal
SK-MEL-2 melanoma = tested on: SK-MEL-2 melanoma
MDA-MB-435 = tested on: MDA-MB-435
NCI-H226 lung = tested on: NCI-H226 lung
K-562 leukemia = tested on: K-562 leukemia
MDA-MB-231 breast = tested on: MDA-MB-231 breast
RPMI-8226 leukemia = tested on: RPMI-8226 leukemia
HOP-92 NSCLC = tested on: HOP-92 NSCLC
CAKI-1 renal = tested on: CAKI-1 renal
U251 CNS = tested on: U251 CNS
SK-MEL-5 melanoma = tested on: SK-MEL-5 melanoma
IGROV1 ovarian = tested on: IGROV1 ovarian
RXF 393 renal = tested on: RXF 393 renal
SNB-75 CNS = tested on: SNB-75 CNS
M14 melanoma = tested on: M14 melanoma
HCT-15 colon = tested on: HCT-15 colon
OVCAR-8 ovarian = tested on: OVCAR-8 ovarian
MALME-3M melanoma = tested on: MALME-3M melanoma
UACC-257 melanoma = tested on: UACC-257 melanoma
TK-10 renal = tested on: TK-10 renal
HT29 colon = tested on: HT29 colon
DU-145 prostate = tested on: DU-145 prostate
SR leukemia = tested on: SR leukemia
NCI/ADR-RES ovarian = tested on: NCI/ADR-RES ovarian
SK-MEL-28 melanoma = tested on: SK-MEL-28 melanoma
HOP-62 NSCLC = tested on: HOP-62 NSCLC
KM12 colon = tested on: KM12 colon
COLO 205 colon = tested on: COLO 205 colon
NCI-H460 lung = tested on: NCI-H460 lung
SW-620 colon = tested on: SW-620 colon
PC-3 prostate = tested on: PC-3 prostate
OVCAR-5 ovarian = tested on: OVCAR-5 ovarian
OVCAR-3 ovarian = tested on: OVCAR-3 ovarian
SNB-19 CNS = tested on: SNB-19 CNS
OVCAR-4 ovarian = tested on: OVCAR-4 ovarian
NCI-H23 lung = tested on: NCI-H23 lung
T-47D breast = tested on: T-47D breast
SF-539 CNS = tested on: SF-539 CNS
HS 578T breast = tested on: HS 578T breast
HCT-116 colon = tested on: HCT-116 colon
SK-OV-3 ovarian = tested on: SK-OV-3 ovarian
BT-549 breast = tested on: BT-549 breast
UO-31 renal = tested on: UO-31 renal
A498 renal = tested on: A498 renal
CCRF-CEM leukemia = tested on: CCRF-CEM leukemia
MCF7 breast = tested on: MCF7 breast
SF-268 CNS = tested on: SF-268 CNS
NCI-H522 lung = tested on: NCI-H522 lung
LOX IMVI melanoma = tested on: LOX IMVI melanoma

`COc1cc(/C=C/c2ccc3c(Br)cc(Br)c(O)c3n2)ccc1O` was tested, and the GI50 (EKVX NSCLC) was 1.42 µM, the TGI (EKVX NSCLC) was 14.9 µM and the GI50 (HL-60(TB) leukemia) was 0.46 µM. It also gave a TGI (HL-60(TB) leukemia) of 2.92 µM, a GI50 (A549 NSCLC) of 1.21 µM and a TGI (A549 NSCLC) of 12.9 µM. It also gave a GI50 (786-0 renal) of 1.69 µM, a TGI (786-0 renal) of 6.93 µM and a GI50 (SF-295 CNS) of 0.912 µM. The TGI (SF-295 CNS) was 14.4 µM, the GI50 (UACC-62 melanoma) was 1.67 µM and the TGI (UACC-62 melanoma) was 5.3 µM. The GI50 (SN12C renal) was 2 µM, the TGI (SN12C renal) was 17.9 µM and the GI50 (MOLT-4 leukemia) was 0.606 µM. It also gave a TGI (MOLT-4 leukemia) of 7.04 µM, a GI50 (ACHN renal) of 0.891 µM and a TGI (ACHN renal) of 12.1 µM. The GI50 (SK-MEL-2 melanoma) was 6.11 µM, the TGI (SK-MEL-2 melanoma) was 22.2 µM and the GI50 (MDA-MB-435) was 3.38 µM. The TGI (MDA-MB-435) was 19.6 µM, the GI50 (NCI-H226 lung) was 4.61 µM and the TGI (NCI-H226 lung) was 17.4 µM. It also gave a GI50 (K-562 leukemia) of 0.441 µM, a TGI (K-562 leukemia) of 10.5 µM and a GI50 (MDA-MB-231 breast) of 7.39 µM. The TGI (MDA-MB-231 breast) was 22 µM, the GI50 (RPMI-8226 leukemia) was 1.21 µM and the TGI (RPMI-8226 leukemia) was 8.07 µM. It also gave a GI50 (HOP-92 NSCLC) of 4.77 µM, a TGI (HOP-92 NSCLC) of 20.8 µM and a GI50 (CAKI-1 renal) of 0.553 µM. It also gave a TGI (CAKI-1 renal) of 5.42 µM, a GI50 (U251 CNS) of 0.636 µM and a TGI (U251 CNS) of 10.9 µM. It also gave a GI50 (SK-MEL-5 melanoma) of 1.47 µM, a TGI (SK-MEL-5 melanoma) of 10.3 µM and a GI50 (IGROV1 ovarian) of 1.54 µM. It also gave a TGI (IGROV1 ovarian) of 13.6 µM, a GI50 (RXF 393 renal) of 3.8 µM and a TGI (RXF 393 renal) of 18.3 µM. It also gave a GI50 (SNB-75 CNS) of 2.5 µM, a TGI (SNB-75 CNS) of 10.1 µM and a GI50 (M14 melanoma) of 1.61 µM. For the same molecule, the TGI (M14 melanoma) was 10.6 µM, the GI50 (HCT-15 colon) was 0.424 µM and the TGI (HCT-15 colon) was 15.3 µM. For the same molecule, the GI50 (OVCAR-8 ovarian) was 2.14 µM, the TGI (OVCAR-8 ovarian) was 15.5 µM and the GI50 (MALME-3M melanoma) was 4.81 µM. The TGI (MALME-3M melanoma) was 18.4 µM, the GI50 (UACC-257 melanoma) was 7.61 µM and the TGI (UACC-257 melanoma) was 22 µM. It also gave a GI50 (TK-10 renal) of 3.84 µM, a TGI (TK-10 renal) of 15.5 µM and a GI50 (HT29 colon) of 3.86 µM. It also gave a TGI (HT29 colon) of 12.8 µM, a GI50 (DU-145 prostate) of 2.41 µM and a TGI (DU-145 prostate) of 17.6 µM. The GI50 (SR leukemia) was 0.476 µM, the TGI (SR leukemia) was 3.41 µM and the GI50 (NCI/ADR-RES ovarian) was 0.327 µM. It also gave a TGI (NCI/ADR-RES ovarian) of 1.49 µM, a GI50 (SK-MEL-28 melanoma) of 3.16 µM and a TGI (SK-MEL-28 melanoma) of 12.9 µM. For the same molecule, the GI50 (HOP-62 NSCLC) was 1.51 µM, the TGI (HOP-62 NSCLC) was 8.07 µM and the GI50 (KM12 colon) was 1.41 µM. It also gave a TGI (KM12 colon) of 13.2 µM, a GI50 (COLO 205 colon) of 5.01 µM and a TGI (COLO 205 colon) of 17.2 µM. It also gave a GI50 (NCI-H460 lung) of 0.446 µM, a TGI (NCI-H460 lung) of 11.5 µM and a GI50 (SW-620 colon) of 2.24 µM. For the same molecule, the TGI (SW-620 colon) was 13 µM, the GI50 (PC-3 prostate) was 1.26 µM and the TGI (PC-3 prostate) was 15.1 µM. It also gave a GI50 (OVCAR-5 ovarian) of 1.49 µM, a TGI (OVCAR-5 ovarian) of 5.84 µM and a GI50 (OVCAR-3 ovarian) of 1.66 µM. It also gave a TGI (OVCAR-3 ovarian) of 9.12 µM, a GI50 (SNB-19 CNS) of 2.67 µM and a TGI (SNB-19 CNS) of 15.2 µM. The GI50 (OVCAR-4 ovarian) was 2.18 µM, the TGI (OVCAR-4 ovarian) was 11.6 µM and the GI50 (NCI-H23 lung) was 1.99 µM. It also gave a TGI (NCI-H23 lung) of 16.4 µM, a GI50 (T-47D breast) of 2.13 µM and a TGI (T-47D breast) of 14.7 µM. It also gave a GI50 (SF-539 CNS) of 2.29 µM, a TGI (SF-539 CNS) of 10.3 µM and a GI50 (HS 578T breast) of 2.01 µM. It also gave a TGI (HS 578T breast) of 14.6 µM, a GI50 (HCT-116 colon) of 0.532 µM and a TGI (HCT-116 colon) of 3.7 µM. It also gave a GI50 (SK-OV-3 ovarian) of 6.62 µM, a TGI (SK-OV-3 ovarian) of 31.8 µM and a GI50 (BT-549 breast) of 2.61 µM. The TGI (BT-549 breast) was 13.6 µM, the GI50 (UO-31 renal) was 1.28 µM and the TGI (UO-31 renal) was 12.4 µM. It also gave a GI50 (A498 renal) of 9.43 µM, a TGI (A498 renal) of 21.8 µM and a GI50 (CCRF-CEM leukemia) of 0.359 µM. The TGI (CCRF-CEM leukemia) was 3.03 µM, the GI50 (MCF7 breast) was 1.53 µM and the TGI (MCF7 breast) was 12.5 µM. For the same molecule, the GI50 (SF-268 CNS) was 1.31 µM, the TGI (SF-268 CNS) was 14.8 µM and the GI50 (NCI-H522 lung) was 2.36 µM. For the same molecule, the TGI (NCI-H522 lung) was 11 µM, the GI50 (LOX IMVI melanoma) was 0.977 µM and the TGI (LOX IMVI melanoma) was 11.4 µM.

Source: PubChem BioAssay (NCI)
